The conditions of data set [1]: in vivo; cited from earlier work.
Data set [2] has as its system LS174T intrahepatic micro-metastases. In kind it is in vivo.
The mark [3] stands for this setting: 0.03 mmolGd/kg DAB-Am64-(1B4M-Gd)64 or 0.1 mmolGd/kg dimeglumine-DTPA-Gd, dynamic MRI 0-25 min.

Consider `CNC[C@H](O)[C@@H](O)[C@H](O)[C@H](O)CO.CNC[C@H](O)[C@@H](O)[C@H](O)[C@H](O)CO.O=C([O-])CN(CCN(CC(=O)[O-])CC(=O)O)CCN(CC(=O)O)C(COCc1ccccc1)C(=O)[O-].[Gd+3]` (stereo not shown) [MultiHance, [Gd(BOPTA)(H2O)]^2−], for which the “excreted via the liver” value in data set [1] is 2-4%.

Take `CCOc1ccc(CC(CN(CCN(CC(=O)[O-])CC(=O)[O-])CC(=O)[O-])N(CC(=O)[O-])CC(=O)[O-])cc1.[Gd+3].[Na+].[Na+]` (stereo not shown) [Eovist, [Gd(EOB-DTPA)(H2O)]^2−]: the “excreted via the liver” value in data set [1] was “roughly 50%”.

Consider `CNC[C@H](O)[C@@H](O)[C@H](O)[C@H](O)CO.CNC[C@H](O)[C@@H](O)[C@H](O)[C@H](O)CO.O=C([O-])CN(CCN(CC(=O)[O-])CC(=O)O)CCN(CC(=O)[O-])CC(=O)O.[Gd+3]` [dimeglumine-DTPA-Gd], for which, in data set [2] (setting [3]), the “MRI signal intensity for blood vessels (portal and hepatic veins)” value is given as “much lower”; the “MRI signal intensity in the tumors” value is recorded as “comparable”. Further, in data set [2] (0.03 mmolGd/kg DAB-Am64-(1B4M-Gd)64 or 0.1 mmolGd/kg dimeglumine-DTPA-Gd, dynamic MRI 0-25 min, comparator worded relative to DAB agent), the “MRI signal intensity in the liver” value is listed as “much lower”. Besides, the “liver-to-tumor image intensity ratio” value in data set [2] (0.1 mmolGd/kg dimeglumine-DTPA-Gd versus 0.03 mmolGd/kg DAB-Am64-(1B4M-Gd)64, all time points) is “significantly less”. In data set [2] (same mice, n=5, 1-day interval, 0.03 mmolGd/kg DAB agent, 0.1 mmolGd/kg dimeglumine-DTPA-Gd), the “tumors with more than 2 mm diameter detected by MRI (of 18)” value is recorded as 18.

The values above are taken from patent US20050019267A1, “Macromolecular imaging agents for liver imaging” (priority 2001, published 2005).
